Key:
[1] = system: ES-2 cells; assay: Scratch assay, migration of ovarian tumor cells; format: cell-based; conditions: 6 hours pre-treatment; images 18 hours post-scratching; BMS-777607 up to 10 μM
[2] = Moisture sorption isotherm of crystalline forms; format: physicochemical
[3] = Kinetic solubility in bio-relevant buffers; format: physicochemical; conditions: for solubility at 24 h: 37 °C, thermodynamic from solid
[4] = 7-day repeat dose toxicity and toxicokinetics; format: in vivo, CD-1 mice; conditions: high dose level (80 mg/kg/day)
Description: The test articles were formulated with 1% Tween 80/5% TPGS/Sterile Water for Injection (v/v/v) and the study designed as indicated in Table 16 below:
Endpoints during the study consisted of clinical observations, body weight, and toxicokinetics. Animals euthanized due to excessive body weight loss in the toxicology-designated groups were euthanized, necropsied, and macroscopic observations recorded.

[5] = Stability studies of crystalline forms (HPLC); format: physicochemical; conditions: for Stability by HPLC: mono-tartrate salt
[6] = pH solubility; format: physicochemical; conditions: for solubility at 24 h: 37 °C, thermodynamic from solid; for FC (form change) of residual solid: 24 hours
[7] = Solid state stability at 40° C./75% RH; format: physicochemical
Method: Agilent 1260 HPLC was utilized and detailed chromatographic conditions for purity and solubility measurement are listed in Table 13 below.
The table below summarizes the characterization and solid state stability results observed for FB and Forms A, B, and D. Samples were prepared and data was obtained according to the procedures and processes listed above unless otherwise specified. More procedures, processes, and results are listed below in Table 14.

[8] = Dynamic Vapor Sorption (DVS); format: physicochemical; conditions: 25° C.
Method: The Dynamic Vapour Sorption studies were performed using a Surface Measurement Systems Ltd. DVS-1 No Video, equipment #2126. The sample is loaded into balance pan, typically 20-30 mg, and equilibrated at 0% RH. […] After completion of the sorption cycle, the sample was dried using the same method. The software used for data collection is DVSWin v3.01 No Video. Data analysis is performed using DVS Standard Analysis Suite v6.3.0 (Standard).

[9] = Single dose toxicity study; format: in vivo; conditions: single oral 150 mg/kg (free base equivalent); by the end of the recovery period
Method: The FB dose levels evaluated were 20, 50, and 150 mg/kg. The test articles were formulated with 1% Tween 80/5% TPGS/Sterile Water for Injection (v/v/v) and the study designed as indicated in Table 15 below:
Endpoints in the study consisted of mortality checks, clinical observations, body weight measurements and toxicokinetics. Following a 7-day post-dose observation period, animals were euthanized, necropsied and macroscopic observations recorded.

[10] = system: H1650 NSCLC cell line; assay: H1650 cell viability (CellTiter-Glo); format: cell-based; conditions: Homo sapiens, NCI-H1650
[11] = system: H1650; assay: H1650 NSCLC xenograft; format: in vivo, athymic nude mice; conditions: 21-day regimen; tartrate salt 40 mpk qd; osimertinib 20 mpk qd
Method: H1650 cells were injected subcutaneously into the hind flank of athymic nude mice at 1×10^7 cells/mouse. Once tumor volumes exceeded 100 mm^3, mice were randomized into study arms.
To assess the combination in vivo, the H1650 xenograft model for NSCFC was utilized. […] Slug and E-cadherin mRNA expression was assessed by standard qPCR technique. […] Slug and E-cadherin protein expression was assessed by standard immunoblotting technique.
(§1) Tumor volumes and bodyweights were assessed twice weekly.
as §1

[12] = system: CYP26 mRNA in MV4-11 leukemia cells; assay: CYP26 mRNA expression (RT-PCR); format: cell-based; conditions: 1 μM RA; 6 hours

## CCOc1ccn(-c2ccc(F)cc2)c(=O)c1C(=O)Nc1ccc(Oc2ccnc(N)c2Cl)c(F)c1 [BMS-777607]
[1]
  migration of ES-2 cells: did not inhibit migration

## CN1CCN(Cc2ccc(Nc3ncc(Cl)c(Nc4ccccc4S(=O)(=O)N(C)C)n3)cc2)CC1.O=C(O)C(O)C(O)C(=O)O [Form D, 2-((5-chloro-2-((4-((4-methylpiperazin-1-yl)methyl)phenyl)amino)pyrimidin-4-yl)amino)-N,N-dimethylbenzenesulfonamide mono-tartrate salt]
[2]
  Moisture sorption isotherm: hygroscopic
  crystal form by XRPD after the moisture absorption/desorption cycle: transformed to the other forms
[3]; FaSSIF, 24 hours
  solubility at 24 h: 3.9 mg/mL
  FC (form change) of residual solid: Yes
[3]; FeSSIF, 24 hours
  solubility at 24 h: 4.6 mg/mL
[3]; SGF, simulated gastric fluid, 24 hours
  solubility at 24 h: > 11 mg/mL
[3]; bio-relevant buffers (FaSSIF, fassgf or other biorelevant, thermodynamic from solid), FaSSIF, FeSSIF and SGF, 37° C., read-out: kinetic solubility in all biorelevant buffers
  solubility kinetic: > 5 mg/mL
[4]
  mortality: one mouse died
[5]; 40° C.
  Stability Results: 98.2%
[5]; 40° C./75% RH
  Stability Results: 98.4%
[5]; 60° C.
  Stability Results: 98.2%
[5]; 60° C./75% RH
  Stability Results: 98.2%
[5]; Initial
  Stability Results: 98.4%
[5]; listed as D
  Stability by HPLC: Stable
[5]
  Stability by HPLC: No significant changes
[6]; pH 2.0 buffer, pH 2, aqueous buffer
  solubility at 24 h: > 6.8 mg/mL
[6]; pH 4.0
  FC (form change) of residual solid: Yes
[6]; pH 4.0 buffer, pH 4, aqueous buffer
  solubility at 24 h: 0.23 mg/mL
[6]; pH 6.0
  FC (form change) of residual solid: Yes
[6]; pH 6.0 buffer, pH 6, aqueous buffer
  solubility at 24 h: 1.9 mg/mL
[6]; pH 8.0
  FC (form change) of residual solid: Yes
[6]; pH 8.0 buffer, pH 8, aqueous buffer
  solubility at 24 h: 0.005 mg/mL
[6]; pH 10.0
  FC (form change) of residual solid: Yes
[6]; pH 10.0 buffer, pH 10, aqueous buffer
  solubility at 24 h: 0.053 mg/mL
[7]; 3 weeks under 40° C./75% RH
  Form Change at 3 weeks: No
  HPLC Purity at 3 weeks (area %): 98.3 area %
[7]; initial, before storage
  Initial HPLC Purity (area %): 98.8 area %
[8]; DVS, mono-tartrate salt
  water uptake at 80% RH: 5.2%
[8]; up to 80% RH
  FC (form change) after DVS: Yes
[9]
  mortality: 100%

## C=CC(=O)Nc1cc(Nc2nccc(-c3cn(C)c4ccccc34)n2)c(OC)cc1N(C)CCN(C)C [osimertinib]
[10]
  EC50: 2.2 µM
[10]; single agent, 72 hours
  IC50: 2.2 µM
[11]
  tumor growth inhibition (% TGI), single agent: 121%

## Retinyl Acetate [RA]
[12]
  induction in mRNA expression levels of CYP26: ~4.3 fold
